Experimental findings from ChEMBL document CHEMBL3817755, “Design, synthesis and biological evaluation of indazolepyrimidine based derivatives as anticancer agents with anti-angiogenic and antiproliferative activities” (Medchemcomm, 2016) are described below.

Data set [1] deals with MDA-MB-231. The data set is described as follows: Growth inhibition of human MDA-MB-231 cells after 48 hrs by SRB assay. It counts as functional. As to conditions: MDA-MB-231, 48 h.
Data set [2] concerns ACHN. The data set is described as follows: Growth inhibition of human ACHN cells after 48 hrs by SRB assay. It counts as functional. (The SRB assay estimates cell density from bound dye.)
For data set [3], the system named is NCI-H322M. The data set is described as follows: Growth inhibition of human NCI-H322M cells after 48 hrs by SRB assay. It counts as functional.
Data set [4] in a line: Growth inhibition of human UACC62 cells after 48 hrs by SRB assay. It counts as functional. As to conditions: UACC-62, 48 h.
Data set [5] relates to SK-MEL-28. Nature of the data set: Growth inhibition of human SK-MEL-28 cells after 48 hrs by SRB assay. It counts as functional. As to conditions: SK-MEL-28, 48 h, read-out: LC50 (the source's name).
The nature of data set [6]: Growth inhibition of human UO31 cells after 48 hrs by SRB assay. It counts as functional. To be noted: UO-31, 48 h.
Data set [7] can be described thus: Growth inhibition of human IGROV1 cells after 48 hrs by SRB assay. To be noted: IGROV-1, 48 h. It counts as functional.
The nature of data set [8]: Growth inhibition of human OVCAR5 cells after 48 hrs by SRB assay. It counts as functional. To be noted: OVCAR-5, 48 h.
Data set [9] can be described thus: Growth inhibition of human SNB19 cells after 48 hrs by SRB assay. It counts as functional. As to conditions: SNB-19, 48 h.
The nature of data set [10]: Solubility of the compound. It counts as physicochemical.
The test system of data set [11] is HUVEC. The data set is described as follows: Antiproliferative activity against HUVEC after 72 hrs by AlamarBlue assay. To be noted: Homo sapiens. On the technique in general: Alamar Blue is a resazurin reagent that responds to reducing activity.
Data set [12] is described as follows: Antiangiogenic activity in human PC3 cells assessed as reduction in TNF-alpha levels at […] +/- […] uM after 72 hrs by ELISA relative to control. It counts as functional, PC-3. Further details: scale not given: the % may be the effect or the level left.
The nature of data set [13]: Antiangiogenic activity in human PC3 cells assessed as reduction in VEGF levels at […] +/- […] uM after 72 hrs by ELISA relative to control. On the set-up: scale not given: the % may be the effect or the level left. It counts as functional, PC-3. Background: ELISA stands for enzyme-linked immunosorbent assay.
Data set [14] is described as follows: Cytotoxicity against human PC3 cells after 72 hrs by SRB assay. To be noted: PC-3, 72 h.
Data set [15] is described as follows: Antiangiogenic activity in human PC3 cells assessed as reduction in TGF-beta levels at […] +/- […] uM after 72 hrs by ELISA relative to control. It counts as functional, PC-3. On the set-up: scale not given: the % may be the effect or the level left.
Data set [16] can be described thus: Antiangiogenic activity in human PC3 cells assessed as reduction in IGF-1 levels at […] +/- […] uM after 72 hrs by ELISA relative to control. It counts as functional, PC-3. Further details: scale not given: the % may be the effect or the level left.
Data set [17] is described as follows: Antiangiogenic activity in human PC3 cells assessed as reduction in FGF-beta levels at […] +/- […] uM after 72 hrs by ELISA relative to control. It counts as functional, PC-3. On the set-up: scale not given: the % may be the effect or the level left.
Data set [18] can be described thus: Antiangiogenic activity in human PC3 cells assessed as reduction in EGF levels at […] +/- […] uM after 72 hrs by ELISA relative to control. It counts as functional, PC-3. Further details: scale not given: the % may be the effect or the level left.
Data set [19] is described as follows: Antiangiogenic activity in human PC3 cells assessed as reduction in leptin levels at […] +/- […] uM after 72 hrs by ELISA relative to control. It counts as functional, PC-3. Further details: scale not given: the % may be the effect or the level left.
[20] abbreviates: read-out: LC50 (the source's name).

On to `COc1ccc(Nc2nccc(Nc3ccc4[nH]ncc4c3)n2)cc1`, for which the GI50 was determined as 2690 nM in data set [1]; 2890 nM in data set [2]; 4.48 µM in data set [3]; 1930 nM in [4]; 2120 nM in data set [6]; 3.36 µM in data set [7]. For the same compound, the GI50 in data set [8] turned out to be 3.33 µM; in [9], 4.3 µM. Besides, the TGI in [1] was found to be 5.36 µM; in data set [2], 11.7 µM; in data set [3], 38.2 µM; in [4], 16.9 µM; in [6], 11.4 µM; in [7], 25.1 µM. For the same compound, the TGI in [8] was above 100 µM; in data set [9], 87 µM. Besides, the CC50 in data set [1] (setting [20]) is above 100 µM; in [2] (setting [20]), 45 µM; in data set [3] (setting [20]), above 100 µM; in data set [4] (setting [20]) it was above 100 µM; in data set [5], above 100 µM; in data set [6] (setting [20]), 33.8 µM. Also, the CC50 in data set [7] (setting [20]), in data set [8] (setting [20]) and in data set [9] (setting [20]) was above 100 µM each time.

With `NS(=O)(=O)c1ccc(Nc2nccc(Nc3ccc4[nH]ncc4c3)n2)cc1`, the solubility entry in data set [10] is recorded as “Insoluble”. The results for the IC50 in data set [11] and in [14] were 1370 nM and 33.8 µM, respectively. In addition, the Activity is 36% in data set [12]; 37.6% in [13]; 32.2% in [15]; 39.5% in [16]; 28.4% in data set [17]; 34.6% in data set [18]. Besides, the Activity in data set [19] was found to be 24.5%.

In general, GI50 refers to the concentration at which growth is held to half of that of the control. By TGI is commonly meant the concentration giving total growth inhibition. The IC50 is the concentration needed to halve the response being measured.
